Measurements taken from US8802695B2, “Apoptosis signal-regulating kinase 1 inhibitors” (Takeda Pharmaceutical Company Limited, priority 2010, dated 2014).

How the values were obtained:
[1] = molecular target: T1, ASK1 (Homo sapiens (Human), UniProt Q99683); assay: Homogeneous Time-Resolved Fluorescence (HTRF) assay for inhibitory effect against ASK1 (Example C; KinEASE STK S3 kit); type: biochemical; settings: 25 nM ASK1, 100 μM ATP, read-out: Enzyme Activity C IC50
Excerpt: (§1) The inhibitory effect of the compound of the invention on ASK1 may be evaluated by evaluating the phosphorylating activity of the enzyme on a known substrate with or without the presence of the test compound. Example B provides such an assay where myelin basic protein (Wako) is used as substrate and detection is by scintillation counting. It should be understood other substrates and detection mechanism may be used. A commercially available a kit, Cisbio's HTRF® KinEASE™ STK kit, has shown to be useful for evaluating ASK1 activity. The assay uses an anti-phosphoseric specific, Eu^3+-Cryptate labeled antibody to mark the phosphorylated product of ASK1 on a biotinylated kinase substrate, and detection is by time resolved fluorescence using XL665 labeled streptavidin. The fluorescence intensity is proportional to the amount of product formation. Example C provides the assay protocol.
Homogeneous Time-Resolved Fluorescence (HTRF) Assay for Measuring the Inhibitory Effect of Exemplified Compounds of the Invention Against ASK1
Recombinant human ASK1 is purchased from Millipore (Cat #14-606). The enzymatic assay of ASK1 is set up by using HTRF® KinEASE™ STK S3 kit, the Universal Assay for Serine/Threonine Kinases kit from CisBio.
The inhibitory properties of compounds to ASK1 may be determined using a white 384-well-plate format under the following reaction conditions: 25 nM ASK1, 1 μM CisBio STK S3-biotion peptide, 100 μM ATP, and 1%-2% DMSO in kinase assay buffer of 50 mM HEPES, pH 7.3, 10 mM NaCl, 10 mM MgCl2, 0.01% Brij35, 0.2 mM EDTA, and 1 mM DTT. Reaction product is determined quantitatively by HTRF after the addition of detection reagent SA-XL665 and STK-antibody-cryptate.
The assay reaction may be initiated as follows: 2 μl of the mixture of 3 μM CisBio STK S3-biotion peptide and 300 μM ATP with 2 μl of test compound (2 fold serial dilutions for 11 data points for each inhibitor) containing 3%-6% DMSO are added to each well of the plate, followed by the addition of 2 μL of 75 nM ASK1 to initiate the reaction (final enzyme concentration was 25 nM for ASK1). The reaction mixture may then be incubated at room temperature for 1 hour, and quenched and developed by the addition of 6 μL of 100-fold diluted STK-antibody-Cryptate and 250 nM SA-XL665 in Cisbio HTRF detection buffer (50 mM HEPES, pH7.0, 0.1% BSA, 0.8 M KF, and 20 mM EDTA). The fluorescence intensity is measured at 620 nm (Cryptate) and 665 nm (XL665) after a 1-2 hour incubation at room temperature. A ratio is calculated (665/620) for each well and is fitted to the standard IC50 curve to determine inhibition constants (IC50).
Target sequence in this assay (Q99683 649-946): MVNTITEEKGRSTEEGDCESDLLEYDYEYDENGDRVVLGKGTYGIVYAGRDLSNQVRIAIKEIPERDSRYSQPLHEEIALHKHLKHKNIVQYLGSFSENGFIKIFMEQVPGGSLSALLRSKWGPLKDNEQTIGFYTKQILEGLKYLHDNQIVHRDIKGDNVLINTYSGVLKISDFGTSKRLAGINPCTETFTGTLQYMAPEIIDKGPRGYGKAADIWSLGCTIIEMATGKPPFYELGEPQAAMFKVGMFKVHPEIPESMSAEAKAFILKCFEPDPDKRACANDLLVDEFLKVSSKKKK

[2] = molecular target: T1, ASK1; assay: Scintillation assay for inhibitory effect against ASK1 (Example B; myelin basic protein substrate, [γ-32P]ATP); type: biochemical; settings: 2.5 μM ATP solution, read-out: Enzyme Activity B IC50
Excerpt: as §1
Target sequence in this assay (Q99683 650-1374): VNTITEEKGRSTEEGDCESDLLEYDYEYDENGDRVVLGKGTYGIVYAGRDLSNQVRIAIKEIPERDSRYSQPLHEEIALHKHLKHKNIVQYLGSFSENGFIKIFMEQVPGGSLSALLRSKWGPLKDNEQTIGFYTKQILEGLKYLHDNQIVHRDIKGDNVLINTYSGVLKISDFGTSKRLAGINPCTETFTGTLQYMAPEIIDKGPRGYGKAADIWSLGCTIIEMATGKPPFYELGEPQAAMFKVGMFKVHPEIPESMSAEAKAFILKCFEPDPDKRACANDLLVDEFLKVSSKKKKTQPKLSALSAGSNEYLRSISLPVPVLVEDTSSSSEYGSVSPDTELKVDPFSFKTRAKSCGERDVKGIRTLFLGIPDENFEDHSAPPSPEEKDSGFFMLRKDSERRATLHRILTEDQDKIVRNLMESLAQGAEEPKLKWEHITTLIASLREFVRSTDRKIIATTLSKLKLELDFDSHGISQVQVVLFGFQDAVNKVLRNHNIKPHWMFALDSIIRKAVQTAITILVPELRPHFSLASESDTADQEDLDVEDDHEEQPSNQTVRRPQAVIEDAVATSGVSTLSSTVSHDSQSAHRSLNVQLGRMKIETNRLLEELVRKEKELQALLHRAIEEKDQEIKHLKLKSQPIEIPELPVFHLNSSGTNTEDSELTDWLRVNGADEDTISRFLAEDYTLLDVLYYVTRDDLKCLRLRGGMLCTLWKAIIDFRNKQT
Cloning of cDNA encoding human ASK1 was conducted by PCR using primers, 5′-[…] […]-3′ (SEQ ID NO: 1) and 5′-AAAGCGGCCGCTCAA […]-3′ (SEQ ID NO: 2), from human heart cDNA library (Becton, Dickinson and Company). The PCR product was subjected to agarose gel (1%) electrophoresis, a 2.2 kb DNA fragment containing an ASK1 gene was recovered from the gel, and then digested with restriction enzymes, NotI and SalI, and inserted into a plasmid pFASTBAC1 (Invitrogen) to prepare a plasmid pFB-ASK1. The insert was verified by sequencing. Recombinant baculovirus was prepared according to the procedure of the Bac-to-Bac baculovirus expression system (Invitrogen).
Sf-21 cells were seeded to achieve 1×10^6 cells/mL in 100 mL of Sf-900 II SFM medium (Invitrogen) which contains 10% fetal calf serum and then cultured at 27° C. for 24 hrs. To express ASK1 in cells, 0.15 mL of the recombinant baculovirus virus stock was added to cells, and the then cultured for 60 hrs. The cells were separated from the culture solution by centrifugation at 3000 rpm for 10 min and washed once with PBS. The cells were suspended in 10 mL of lysis buffer (25 mM HEPES (pH 7.5), 1% Triton X, 130 mM NaCl, 1 mM EDTA, 1 mM DTT, 25 mM (3-glycerophosphate, Protease inhibitor complete (Roche), 1 mM sodium orthovanadate) and ruptured by four times of treatment with a homogenizer (POLYTRON) at 20000 rpm for 30 seconds. Active ASK1 protein was purified from a supernatant obtained by centrifugal separation at 40000 rpm for 45 min using anti-FLAG M2 Affinity Gel (Sigma).
Scintillation Assay for Measuring the Inhibitory Effect of Exemplified Compounds of the Invention Against ASK1
The test compounds (2.5 μL) dissolved in DMSO were added to wells containing 37.5 μL of the reaction solution (25 mM HEPES (pH 7.5), 10 mM magnesium acetate, 1 mM DTT) including 30 ng of active ASK1 protein and 1 μg of myelin basic protein (Wako), and incubated at room temperature for 5 min. To start the reaction, 10 μL of ATP solution (2.5 μM ATP, 0.1 μCi [γ-^32P]ATP) was added to wells. After incubating at room temperature for 30 min, the reaction was terminated by adding 50 μL of 20% TCA solution. The reaction solution was incubated at 4° C. for 30 min and an acid-insoluble fraction was transferred onto a GF/C filter (Packard) with Cell Harvester (Packard), and washed with 250 mM phosphoric acid. After drying at 45° C. for 60 min., 40 μL of Microscint 0 (Packard) was added and the radioactivity was measured with TopCount (Packard). The concentrations (IC50 value) of the test compounds necessary for 50% inhibition of kinase activity were calculated by PRISM 3.0 (Graphpad Software).

Structure (SMILES)	IC50 [1]	IC50 [2]
CCn1ccc2cnc(NC(=O)c3ccc([C@@](C)(O)CO)c(C)c3)cc21 [Compound 27, (R)-4-(1,2-dihydroxypropan-2-yl)-N-(1-ethyl-1H-pyrrolo[3,2-c]pyridin-6-yl)-3-methylbenzamide]	0.528 µM	–
CCn1ccc2cnc(NC(=O)c3ccc([C@@](C)(O)CO)cc3)cc21 [Compound 13, (R)-4-(1,2-dihydroxypropan-2-yl)-N-(1-ethyl-1H-pyrrolo[3,2-c]pyridin-6-yl)benzamide]	0.064 µM	0.055 µM
CCn1cc(C)c2cnc(NC(=O)c3ccc(C(C)(C)O)cc3)cc21 [Compound 12, N-(1-ethyl-3-methyl-1H-pyrrolo[3,2-c]pyridin-6-yl)-4-(2-hydroxypropan-2-yl)benzamide]	0.02 µM	0.007 µM
CCn1cc(Br)c2cnc(NC(=O)c3ccc(C(C)(C)O)cc3)cc21 [Compound 11, N-(3-bromo-1-ethyl-1H-pyrrolo[3,2-c]pyridin-6-yl)-4-(2-hydroxypropan-2-yl)benzamide]	0.008 µM	0.003 µM
CC(C)(O)c1ccc(C(=O)Nc2cc3c(cn2)c(Br)cn3CC2CC2)cc1 [Compound 10, N-(3-bromo-1-(cyclopropylmethyl)-1H-pyrrolo[3,2-c]pyridin-6-yl)-4-(2-hydroxypropan-2-yl)benzamide]	0.062 µM	0.003 µM
Cn1c(Cl)c(Cl)c2cnc(NC(=O)c3ccc([C@@](C)(O)CO)cc3)cc21 [Compound 32, (R)—N-(2,3-dichloro-1-methyl-1H-pyrrolo[3,2-c]pyridin-6-yl)-4-(1,2-dihydroxypropan-2-yl)benzamide]	0.122 µM	–
C[C@](O)(CO)c1ccc(C(=O)Nc2cc3c(cn2)c(Br)cn3C2CC2)cc1 [Compound 22, (R)—N-(3-bromo-1-cyclopropyl-1H-pyrrolo[3,2-c]pyridin-6-yl)-4-(1,2-dihydroxypropan-2-yl)benzamide]	0.007 µM	0.002 µM
Cn1c(Cl)c(Cl)c2cnc(NC(=O)c3ccc(C(C)(C)O)cc3)cc21 [Compound 25, N-(2,3-dichloro-1-methyl-1H-pyrrolo[3,2-c]pyridin-6-yl)-4-(2-hydroxypropan-2-yl)benzamide]	0.146 µM	0.06 µM
CC(C)(O)c1ccc(C(=O)Nc2cc3c(ccn3CS(C)(=O)=O)cn2)cc1 [Compound 21, 4-(2-hydroxypropan-2-yl)-N-(1-(methylsulfonylmethyl)-1H-pyrrolo[3,2-c]pyridin-6-yl)benzamide]	12.4 µM	–
Cn1cc(Cl)c2cnc(NC(=O)c3ccc(C(C)(C)O)cc3)cc21 [Compound 24, N-(3-chloro-1-methyl-1H-pyrrolo[3,2-c]pyridin-6-yl)-4-(2-hydroxypropan-2-yl)benzamide]	0.018 µM	0.011 µM
CC(C)(O)c1ccc(C(=O)Nc2cc3c(ccn3CC3CC3)cn2)cc1 [Compound 9, N-(1-(cyclopropylmethyl)-1H-pyrrolo[3,2-c]pyridin-6-yl)-4-(2-hydroxypropan-2-yl)benzamide]	0.237 µM	0.081 µM
C[C@](O)(CO)c1ccc(C(=O)Nc2cc3c(ccn3C3CC3)cn2)cc1 [Compound 17, (R)—N-(1-cyclopropyl-1H-pyrrolo[3,2-c]pyridin-6-yl)-4-(1,2-dihydroxypropan-2-yl)benzamide]	0.214 µM	0.069 µM
CCn1cc(Cl)c2cnc(NC(=O)c3ccc([C@@](C)(O)CO)c(C)c3)cc21 [Compound 33, (R)—N-(3-chloro-1-ethyl-1H-pyrrolo[3,2-c]pyridin-6-yl)-4-(1,2-dihydroxypropan-2-yl)-3-methylbenzamide]	0.041 µM	–
Cn1cc(Br)c2cnc(NC(=O)c3ccc([C@@](C)(O)CO)cc3)cc21 [Compound 16, (R)—N-(3-bromo-1-methyl-1H-pyrrolo[3,2-c]pyridin-6-yl)-4-(1,2-dihydroxypropan-2-yl)benzamide]	0.02 µM	0.007 µM
CC(C)(CO)c1ccc(C(=O)Nc2cc3c(cn2)c(Cl)cn3C2CC2)cc1 [Compound 28, N-(3-chloro-1-cyclopropyl-1H-pyrrolo[3,2-c]pyridin-6-yl)-4-(1-hydroxy-2-methylpropan-2-yl)benzamide]	0.016 µM	–
